Reference: ChEMBL document CHEMBL2034981, “MK-8825: a potent and selective CGRP receptor antagonist with good oral activity in rats” (Bioorg Med Chem Lett, 2012)
pEC50, pKi: −log10 of the molar value. Values after ≈ are worked out from the molar mass of the structure shown.

Experiments:
[1] = Fraction unbound in dog plasma; format: ADME, cell-free, Canis lupus familiaris
[2] = target: T1, Calcitonin gene-related peptide type 1 receptor (Rattus norvegicus, UniProt Q63118); assay: Displacement of [125I]CGRP from CGRP receptor in rat brain membrane after 3 hrs; format: cell membranes
Rattus norvegicus = assay: Antimigraine activity in iv dosed rat assessed as inhibition of capsaicin-induced dermal vasodilation administered 10 mins post capsaicin-challenge measured after 20 mins by laser doppler scanning; format: functional, organism-based
[3] = Fraction unbound in rat plasma; format: ADME, cell-free
[4] = Fraction unbound in human plasma; format: ADME, cell-free
[5] = Aqueous solubility of the compound in phosphate buffer at pH 7; format: physicochemical
Rhesus monkey = assay: Antimigraine activity in iv dosed rhesus monkey assessed as inhibition of capsaicin-induced dermal vasodilation administered 5 mins post capsaicin-challenge measured after 20 mins by laser doppler scanning; format: functional, organism-based; conditions: Macaca mulatta
[6] = Selectivity ratio of Ki for rat CGRP receptor to Ki for human CGRP receptor
[7] = Fraction unbound in monkey plasma; format: ADME, cell-free, Macaca mulatta; conditions: rhesus monkey
[8] = Ratio of Ki for rat CGRP receptor to Ki for rhesus monkey CGRP receptor
[9] = Displacement of [125I]CGRP from CGRP receptor in rhesus monkey cerebellum after 3 hrs; format: tissue-based, Macaca mulatta
[10] = target: Calcitonin-gene-related peptide receptor, CALCRL/RAMP1 (Homo sapiens, UniProt O60894+Q16602); assay: Displacement of [125I]CGRP from human recombinant CALCRL/RAMP1 receptor expressed in HEK293 cells after 3 hrs; format: cell-based
[11] = target: T1, Calcitonin gene-related peptide type 1 receptor; assay: Displacement of [125I]CGRP from CGRP receptor in rat spleen homogenate after 180 mins by gamma counting; format: tissue-based
Plasma = assay: Ratio of compound to MK-3207 fraction unbound in rat plasma; format: ADME, cell-free

Sequence of Calcitonin-gene-related peptide receptor, CALCRL/RAMP1 (O60894 whole entry): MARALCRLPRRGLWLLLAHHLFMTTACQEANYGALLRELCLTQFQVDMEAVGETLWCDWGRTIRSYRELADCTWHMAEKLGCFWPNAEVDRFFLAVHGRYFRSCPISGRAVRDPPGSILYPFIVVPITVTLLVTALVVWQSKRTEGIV
Sequence of Calcitonin-gene-related peptide receptor, CALCRL/RAMP1 (Q16602 whole entry): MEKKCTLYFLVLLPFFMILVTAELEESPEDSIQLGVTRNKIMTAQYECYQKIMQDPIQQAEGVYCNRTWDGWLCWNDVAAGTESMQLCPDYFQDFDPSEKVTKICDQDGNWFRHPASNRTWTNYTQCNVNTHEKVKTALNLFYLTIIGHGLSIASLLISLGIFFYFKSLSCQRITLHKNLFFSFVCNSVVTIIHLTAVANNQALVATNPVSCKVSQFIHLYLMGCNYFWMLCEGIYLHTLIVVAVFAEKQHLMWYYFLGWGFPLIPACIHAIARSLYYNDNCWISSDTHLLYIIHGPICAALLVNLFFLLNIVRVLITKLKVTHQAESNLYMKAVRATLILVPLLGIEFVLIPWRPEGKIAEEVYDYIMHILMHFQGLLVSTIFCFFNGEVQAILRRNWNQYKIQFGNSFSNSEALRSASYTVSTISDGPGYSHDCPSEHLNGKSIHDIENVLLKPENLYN
T1 sequence (Q63118 whole entry): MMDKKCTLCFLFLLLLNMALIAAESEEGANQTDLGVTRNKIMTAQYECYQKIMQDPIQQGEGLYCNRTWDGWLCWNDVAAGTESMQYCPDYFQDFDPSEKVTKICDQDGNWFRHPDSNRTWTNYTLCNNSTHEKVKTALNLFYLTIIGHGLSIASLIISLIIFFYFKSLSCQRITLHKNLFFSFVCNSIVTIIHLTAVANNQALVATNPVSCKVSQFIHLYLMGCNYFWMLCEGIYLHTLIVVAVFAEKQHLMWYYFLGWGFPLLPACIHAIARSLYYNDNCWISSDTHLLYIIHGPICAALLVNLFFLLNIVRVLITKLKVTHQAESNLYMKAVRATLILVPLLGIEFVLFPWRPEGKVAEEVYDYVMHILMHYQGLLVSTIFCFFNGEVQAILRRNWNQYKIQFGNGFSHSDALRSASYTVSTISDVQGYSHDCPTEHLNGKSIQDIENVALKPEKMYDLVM

**Q.** For `O=C(CN1C(=O)C2(CCCC2)NC[C@H]1c1cc(F)cc(F)c1)Nc1ccc2c(c1)C[C@@]1(C2)C(=O)Nc2ncccc21` [MK3207], which fraction unbound [1] is on record?
**A.** 0.061

**Q.** What about the pKi [2] of the same molecule?
**A.** 8.00

**Q.** And the pEC50 (Rattus norvegicus)?
**A.** 4.24

**Q.** What about the inhibition (Rattus norvegicus) of the same molecule?
**A.** Dose-dependent effect

**Q.** And the fraction unbound [3]?
**A.** 0.0084

**Q.** And the fraction unbound [4]?
**A.** 0.094

**Q.** And the solubility [5]?
**A.** 17 µg/mL (≈ 30.5 µM)

**Q.** What about the pEC50 (Rhesus monkey) of the same molecule?
**A.** 9.10

**Q.** And the Ratio Ki [6]?
**A.** 400

**Q.** And the fraction unbound [7]?
**A.** 0.096

**Q.** What about the Ratio Ki [8] of the same molecule?
**A.** 400

**Q.** And the pKi [9]?
**A.** 10.62

**Q.** And the pKi [10]?
**A.** 10.66

**Q.** Which results are given for `CC[C@@]1(c2cc(F)cc(F)c2)CNC2(CCCC2)C(=O)N1CC(=O)Nc1cnc2c(c1)C[C@@]1(C2)C(=O)Nc2ncccc21`?
**A.** pKi [2]: 7.22; fraction unbound [3]: 0.033; pKi [10]: 9.60

**Q.** What does the source list for `C[C@@]1(c2cc(F)c(Cl)c(F)c2)CNC2(CCCC2)C(=O)N1CC(=O)Nc1cnc2c(c1)C[C@@]1(C2)C(=O)Nc2ncccc21`?
**A.** pKi [2]: 7.89; fraction unbound [3]: 0.034; pKi [10]: 10.80

**Q.** With `NCCCC[C@H](NC(=O)[C@@H](Cc1cc(Br)c(O)c(Br)c1)NC(=O)N1CCC(N2Cc3ccccc3NC2=O)CC1)C(=O)N1CCN(c2ccncc2)CC1` [OLCEGEPANT] as the molecule, how does the pKi [11] read?
**A.** 8.47

**Q.** What does the source list for `C[C@@]1(c2cc(F)cc(F)c2)CNC2(CCCC2)C(=O)N1CC(=O)Nc1ccc2c(c1)C[C@@]1(C2)C(=O)Nc2ncccc21`?
**A.** fraction unbound [1]: 0.079; pKi [2]: 8.47; fraction unbound [3]: 0.061; fraction unbound [4]: 0.106; Ratio (Plasma): 7; fraction unbound [7]: 0.104; pKi [10]: 10.40
